Measured values: patent US5627198A, “Heterocyclic amides” (Hafslund Nycomed Pharma Aktiengesellschaft, priority 1994, dated 1997)

Tests used:
bladder strips = test: Effects on the bladder muscle in vitro (relaxant effect on bladder strips); parameters: species or system guinea pigs; details: Cavia porcellus; guinea pig bladder strips; contractions triggered by electrical stimulation or KCl depolarization; read-out: A IC50 (concentration which reduces contraction of bladder strips by 50%)
Procedure: Effects on the bladder muscle in vitro
In these experiments, the IC50 value denotes the concentration of a substance which reduces contraction by 50%.
Male albino guinea pigs weighing about 400 g are killed painlessly by a blow to the neck and quickly exsanguinated. The abdominal cavity is opened and the bladder is carefully resectioned. It is placed in a Petri dish filled with Krebs solution, and surrounding connective and fatty tissue is removed. Two horizontal strips of tissue are prepared. With the aid of two threads which are attached to both ends of the strips of tissue, the strips are suspended in an organ bath. They are fastened at the bottom to a hook and at the top to an electric force transducer which is able to measure precisely contractions of 0-10 g in strength. The measured contractions are amplified by means of a bridge amplifier and are recorded with a thermal plotter. The signals obtained can also be integrated electronically on another plotter channel in order to quantify in-phase contractions.
(§1) The organ baths are filled with Krebs solution at 37° C. through which an O2 /CO2 mixture is bubbled thoroughly and which has the following composition (mmol/1): NaCl 118.4; KCl 4.7; CaCl2 2.5; KH2 PO4 1.2; MgSO4 1.2; NaHCO3 25; glucose 11.
The strips are stretched with a basic tone of about 0.5 g. After an equilibration time of about 30 minutes, one of the two strips is stimulated electrically every minute using built-in electrodes (period of stimulation 2 seconds, 30 Hz, 0.5 ms pulse width, 10 volts) in order to trigger short-term contractions. The other strip is made to exert in-phase contraction by depolarization (addition of […] KCl to the organ bath). Both the contractions triggered by electrical stimulation and those initiated by depolarization and occurring in the strips of bladder muscle quickly reach a plateau. As soon as this plateau is reached ("100% value"), the test substance is added to the organ bath, initially at 10w concentrations, for example 10^-8 M, and then in increasing doses at regular intervals, until the contractions reduce or the final concentration of 10^-4 M is reached. Each test substance is tested 2-4 times in this way.
(§2) For purposes of evaluation, the height of the contractions registered on the plotter paper is measured for each experiment after the action of each test concentration added. The IC50 value can be calculated in this way in relation to the original height of contractions before the addition of substance (100%). All of the IC50 values are shown in column A of Table 1.

rings of aorta = test: Effects on vessel muscle in vitro (aorta rings, KCl depolarization); parameters: species or system rats; details: rat aorta rings contracted with 25 mM KCl; read-out: B IC50 (rings of aorta)
Procedure: Effects on vessel muscle in vitro
Male rats weighing about 300 g are killed painlessly by a blow to the neck and quickly exsanguinated. The thoracic cavity is opened and the aorta is carefully resectioned. It is placed in a Petri dish filled with Krebs solution, and surrounding connective and fatty tissue is removed. Two rings are prepared. The rings are each suspended in an organ bath. They are attached at the bottom to a hook and at the top to an electrical force transducer which is able to measure precisely contractions of 0-10 grams in strength. The measured contractions are amplified by means of a bridge amplifier and recorded with a thermal plotter.
as §1
The rings are stretched with a basic tone of about 0.5 g. After an equilibration time of about 30 minutes, the rings are caused to undergo contraction by depolarization (addition of 25 mM KCl to the organ bath). The contractions of the rings of aorta, triggered by the depolarization, quickly reach a plateau. As soon as this plateau is reached ("100% value"), the test substance is added to the organ bath, initially at low concentrations, for example 10^-8 M, and then in increasing doses at regular intervals, until the contractions reduce or the final concentration of 10^-4 M is reached. Each test substance is tested 2-4 times in this way.
as §2, with “(100%).” for “(100%). All of the”, “B” for “A”

[1] = tested on: arterial blood pressure, conscious rat; test: Effects on blood pressure in vivo, conscious rat; parameters: species or system Sprague-Dawley rats
Procedure: Effects on blood pressure in vivo
The rats were fasted overnight before the day of the experiment.
On the day of experiment, the rats were brought into the laboratory and their blood pressure and heart rate was recorded over about 30 minutes. The test substances, suspended in 0.5% methylcellulose, were then administered perorally via a stomach tube (volume: 3 ml/kg of body weight) and blood pressure and heart rate were measured over the next 6 hours. The percentage changes in the measured values in relation to the initial values were calculated and were determined for groups of 3-4 similarly treated animals.

IC50 (bladder strips) [µM] | IC50 (rings of aorta) [nM] | SMILES | Reduction in diastolic pressure, % of initial value ([1]; 6 mg/kg peroral, 30 min) | Reduction in diastolic pressure, % of initial value ([1]; 6 mg/kg peroral, 60 min) | Reduction in diastolic pressure, % of initial value ([1]; 6 mg/kg peroral, 120 min) | Reduction in diastolic pressure, % of initial value ([1]; 6 mg/kg peroral, 15 min) | Reduction in diastolic pressure, % of initial value ([1]; 18 mg/kg peroral, 15 min) | Reduction in diastolic pressure, % of initial value ([1]; 18 mg/kg peroral, 30 min) | Reduction in diastolic pressure, % of initial value ([1]; 18 mg/kg peroral, 60 min) | Reduction in diastolic pressure, % of initial value ([1]; 18 mg/kg peroral, 120 min) | Reduction in diastolic pressure, % of initial value ([1]; 1 mg/kg peroral, 15 min) | Reduction in diastolic pressure, % of initial value ([1]; 1 mg/kg peroral, 30 min) | Reduction in diastolic pressure, % of initial value ([1]; 1 mg/kg peroral, 60 min) | Reduction in diastolic pressure, % of initial value ([1]; 1 mg/kg peroral, 120 min)
100 | 2500 | CC(O)(C(=O)Nc1ccc(C(=O)c2ccccc2)s1)C(F)(F)F (stereo not shown) [Example 1, N-[5-(Phenylcarbonyl)thien-2-yl]-3,3,3-tri-fluoro-2-hydroxy-2-methylpropanamide] | 3 % of initial value | 2 % of initial value | 4 % of initial value |  |  |  |  |  |  |  |  | 
100 | 20000 | CC(O)(C(=O)Nc1ncc(C(=O)c2ccccc2)s1)C(F)(F)F (stereo not shown) [Example 2, N-[5-(Phenylcarbonyl)thiazol-2-yl]-3,3,3-trifluoro-2-hydroxy-2-methylpropanamide] | 8 % of initial value | 5 % of initial value |  | 2 % of initial value |  |  |  |  |  |  |  | 
1.7 | 1200 | CC(O)(C(=O)Nc1ccc(S(=O)(=O)c2ccccc2)s1)C(F)(F)F (stereo not shown) [Example 4, N-[5-(Phenylsulfonyl)thien-2-yl]-3,3,3-trifluoro-2-hydroxy-2-methylpropanamide] | 5 % of initial value | 4 % of initial value | 6 % of initial value | 1 % of initial value | 0 % of initial value | 8 % of initial value | 10 % of initial value | 15 % of initial value |  |  |  | 

The remaining lines, values behind:

SMILES | IC50 (bladder strips) [µM] | IC50 (rings of aorta) [nM] | Reduction in diastolic pressure, % of initial value ([1]; 6 mg/kg peroral, 30 min) | Reduction in diastolic pressure, % of initial value ([1]; 6 mg/kg peroral, 60 min) | Reduction in diastolic pressure, % of initial value ([1]; 6 mg/kg peroral, 120 min) | Reduction in diastolic pressure, % of initial value ([1]; 6 mg/kg peroral, 15 min) | Reduction in diastolic pressure, % of initial value ([1]; 18 mg/kg peroral, 15 min) | Reduction in diastolic pressure, % of initial value ([1]; 18 mg/kg peroral, 30 min) | Reduction in diastolic pressure, % of initial value ([1]; 18 mg/kg peroral, 60 min) | Reduction in diastolic pressure, % of initial value ([1]; 18 mg/kg peroral, 120 min) | Reduction in diastolic pressure, % of initial value ([1]; 1 mg/kg peroral, 15 min) | Reduction in diastolic pressure, % of initial value ([1]; 1 mg/kg peroral, 30 min) | Reduction in diastolic pressure, % of initial value ([1]; 1 mg/kg peroral, 60 min) | Reduction in diastolic pressure, % of initial value ([1]; 1 mg/kg peroral, 120 min)
CC(O)(C(=O)Nc1nnc(C(=O)c2ccccc2)s1)C(F)(F)F (stereo not shown) [Example 3, N-[5-(Phenylcarbonyl)-1,3,4-thiadiazol-2-yl]-3,3,3-trifluoro-2-hydroxy-2-methylpropanamide] | 50 | 10000 | 3 % of initial value | 2 % of initial value | 4 % of initial value |  |  |  |  |  |  |  |  | 
CC1(C)Oc2ccc(C#N)cc2C(N2CCCC2=O)C1O (stereo not shown) [V, cromakalim, reference compound] | 1 | 65 |  |  |  |  |  |  |  |  | 53 % of initial value | 49 % of initial value | 40 % of initial value | 26 % of initial value
